Values of other authors as cited in US9987231B2, “Compositions and methods for delivery of omeprazole plus acetylsalicylic acid” (POZEN INC., priority 2011, dated 2018).

What was measured:
[1] = tested on: Plasma protein

Structure (SMILES): COc1ccc2[nH]c([S+]([O-])Cc3ncc(C)c(OC)c3C)nc2c1 (racemic) [Omeprazole]
- Systemic bioavailability (after repeated dose): about 60%
- Orally given dose excreted as metabolites in the urine (in vivo, po): About 80%
- Time in which absorption is usually completed (small intestine): 3 to 6 h
- Plasma protein binding [1]: about 95%
